{
  "source": "patent US9248124B2",
  "about": "“Use of inhibitors of IκB kinase for the treatment of cancer” (Millennium Pharmaceuticals, Inc., priority 2001, dated 2016)",
  "assay_type_in_all_cases": "cell-based, human",
  "key": {"STAT3 phosphorylation": {"test_system": "STAT3 phosphorylation", "experiment": "Immunoblot of IL-6 induced STAT3 phosphorylation in MM.1S cells", "conditions": "IL-6 50 ng/mL for 5 min, compound 1 10 μM 90 min, FIG. 5", "experimental": "(§1) MM cells were cultured with PS-341 or compound 1; harvested; washed; and lysed using lysis buffer: 50 mM Tris-HCl (pH 7.4), 150 mM NaCl, 1% NP-40, 5 mM EDTA, 5 mM NaF, 2 mM Na3VO4, 1 mM PMSF, 5 μg/mL leupeptin, and 5 μg/mL aprotinin. For detection of phospho-IκBα, IκBα, phospho-MAPK, phospho-STAT3, ERK2 or alpha-tubulin, cell lysates were subjected SDS-PAGE, transferred to PVDF membrane (Bio-Rad Laboratories, Hercules, Calif.), and immunoblotted with anti-phospho-IκBα, -IκBα, -phospho-MAPK, or -phospho-STAT3 Abs (Cell Signaling, Beverly, Mass.), and anti-alpha-tubulin (Sigma) Abs."}, "Akt phosphorylation": {"test_system": "Akt phosphorylation", "experiment": "Phosphorylation of Akt triggered by IL-6 in MM.1S cells", "conditions": "compound 1 pre-treatment, data not shown"}, "[1]": {"test_system": "NF-κB activation in MM.1S cells", "experiment": "Electrophoretic mobility shift assay (EMSA) of NF-κB activation in MM.1S cells", "experimental": "Electrophoretic mobility shift analyses (EMSA) were carried out as in previous studies (Hideshima et al., Oncogene 20:4519 (2001); Hideshima et al., Cancer Res. 61:3071 (2001)). Briefly, MM.1S cells were pre-incubated with PS-341 (5 μM for 1 h) and compound 1 (10 μM for 90 min) before stimulation with TNFα (5 ng/mL) for 10 or 20 min. Cells were then pelleted, resuspended in 400 μL of hypotonic lysis buffer (20 mM HEPES, pH 7.9, 10 mM KCl, 1 mM EDTA, 0.2% Triton X-100, 1 mM Na3VO4, 5 mM NaF, 1 mM PMSF, 5 μg/mL leupeptin, 5 μg/mL aprotinin), and kept on ice for 20 min. After centrifugation (14000 g for 5 min) at 4° C., the nuclear pellet was extracted with 100 μL hypertonic lysis buffer (20 mM HEPES, pH 7.9, 400 mM NaCl, 1 mM EDTA, 1 mM Na3VO4, 5 mM NaF, 1 mM PMSF, 5 μg/mL leupeptin, 5 μg/mL aprotinin) on ice for 20 min. After centrifugation (14000 g for 5 min) at 4° C., the supernatant was collected as nuclear extract. […]\nSince NF-κB activation requires phosphorylation, ubiquitination, and degradation of IκBα, we next examined whether compound 1 could inhibit NF-κB activation, assessed by EMSA. […]"}, "[2]": {"test_system": "ICAM-1 expression on MM.1S and RPMI8226 cells", "experiment": "Flow cytometry of TNFα-induced ICAM-1 expression on MM cells", "conditions": "TNFα 5 ng/mL, compound 1 10 μM, 24 h, FIG. 10", "experimental": "(§2) For cell cycle analysis, MM cells cultured for 24-48 h in compound 1 (10 μM), Dex (1 μM); IL-6 (20 ng/mL), or control media were harvested, washed with phosphate-buffered saline (PBS), fixed with 70% ethanol, and treated with 10 μg/mL of RNase (Roche Diagnostics Corp., Indianapolis, Ind.). Cells were then stained with propidium iodine (PI, Sigma) (5 μg/mL). For detection of ICAM-1 expression, MM cells cultured in TNFα (5 ng/mL) in the presence or absence of compound 1 (10 μM) were harvested, washed with PBS, and stained with mouse IgG isotype control or FITC-conjugated mouse anti-human CD54 Ab. Both cell cycle profile and ICAM-1 expression were determined using an Epics (Coulter Immunology, Hialeah, Fla.) flow cytometer, as in prior studies (Hideshima et al., Oncogene 20:4519 (2001))."}, "[3]": {"test_system": "p42/44 MAPK phosphorylation", "experiment": "Immunoblot of IL-6 induced p42/44 MAPK phosphorylation in MM.1S cells", "conditions": "IL-6 50 ng/mL for 5 min, compound 1 10 μM 90 min, PS-341 5 μM 60 min, FIG. 5", "experimental": "as §1"}, "U266 cells": {"test_system": "U266 cells", "experiment": "Cell cycle profile by PI staining and flow cytometry, U266", "conditions": "10 μM for 24, 36 and 48 h, FIG. 4", "experimental": "as §2"}, "MM.1S cells": {"test_system": "MM.1S cells", "experiment": "Growth inhibition / viability by MTT assay in MM.1S cells with TNFα", "experimental": "The inhibitory effect of PS-341 and compound 1 on MM growth was assessed by measuring 3-(4,5-dimethylthiazol-2-yl)-2,5-diphenyl […] bromide (MTT) dye absorbance of the cells. Cells from 48 h cultures were pulsed with […] of 5 mg/mL MTT to each well for the last 4 h of 48 h cultures, followed by 100 μL isopropanol containing 0.04N HCl. Absorbance was measured at 570 nm using a spectrophotometer (Molecular Devices Corp., Sunnyvale Calif.)."}},
  "data": [
    {"smiles": "O=C(Nc1cc(Cl)cc2c1[nH]c1cnccc12)c1cccnc1", "note": "[compound 1, N-(6-chloro-9H-β-carbolin-8-yl)-nicotinamide]", "values": [
      {"measurement": "STAT3 phosphorylation", "setting": "STAT3 phosphorylation", "result": "does not inhibit"},
      {"measurement": "Phosphorylation of Akt triggered by IL-6", "setting": "Akt phosphorylation", "result": "unaffected"},
      {"measurement": "NF-κB activation triggered by TNFα (EMSA), dose dependence", "setting": "[1]; compound 1 2.5-10 μM for 90 min, dose-dependent fashion, FIG. 6C", "result": "inhibits"},
      {"measurement": "NF-κB activation (EMSA)", "setting": "[1]; pre-treated 10 μM for 90 min, TNFα 5 ng/mL for 0-20 min, FIG. 2", "result": "completely inhibited"},
      {"measurement": "TNFα-induced upregulation of ICAM-1 expression", "setting": "[2]", "result": "inhibits"},
      {"measurement": "p42/44 MAPK phosphorylation", "setting": "[3]", "result": "does not inhibit"},
      {"measurement": "cell cycle profile", "setting": "U266 cells", "result": "induced G1 growth arrest, but not apoptosis"},
      {"measurement": "inhibition at 10 µM", "setting": "MM.1S cells; Homo sapiens, MM1.S, TNFα 1 ng/mL in the presence of 10 μM compound 1, 48 h", "result": 60, "unit": "%"},
      {"measurement": "viability of MM.1S cells (MTT assay)", "setting": "MM.1S cells; TNFα 0.2 and 1 ng/mL in the presence of compound 1 2.5-10 μM, 48 h, p<0.001, FIG. 11", "result": "significantly decreased"}
    ]}
  ]
}
